Source: ChEMBL document CHEMBL1201862, “PubChem BioAssay data set” (2004)
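1) Cells in 96-well plates. 2) Compound, 48 h, 5 concentrations. 3) Linear interpolation between surrounding doses. 4) Unreached endpoint = highest concentration. Abbreviation: GI50, concentration required for 50% inhibition of growth.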 Active and inactive are the calls of the source. Rule as the data show it: active = GI50 up to about 1.1 µM and inactive = higher.

Legend:
Test in all cases: NCI-60 cell line screen, 48 h
[1] = test system: SNB-75
[2] = test system: DLD-1
[3] = test system: SN12C
[4] = test system: SW-620
[5] = test system: COLO 205
[6] = test system: SK-OV-3
[7] = test system: UACC-62
[8] = test system: LOX IMVI
[9] = test system: NCI-H226
[10] = test system: OVCAR-5
[11] = test system: HCT-116
[12] = test system: 786-0
[13] = test system: UO-31
[14] = test system: ACHN
[15] = test system: SK-MEL-2
[16] = test system: M14
[17] = test system: HOP-92
[18] = test system: SR

Measured: GI50

COc1ccccc1/N=N/C(C(=O)c1ccccc1)C(=O)c1ccccc1
inactive: [1] 19.9 µM | [2] 17.6 µM | [3] 17.2 µM | [4] 25.1 µM | [5] 33.3 µM | [6] 45.1 µM | [7] 13.2 µM | [8] 17.9 µM | [9] 14.4 µM | [10] 32.1 µM | [11] 11.5 µM | [12] 24.4 µM | [13] 12.8 µM | [14] 21.6 µM | [15] 20.7 µM | [16] 15 µM

Cc1ccc(C)c2sc3cc(=O)ccc-3nc12
inactive: [1] 55.5 µM | [2] 45.9 µM | [3] 57.7 µM | [4] 63.1 µM | [5] 63.8 µM | [6] > 100 µM | [17] 28.1 µM | [18] 26.4 µM | [7] 17.5 µM | [9] 75.2 µM | [10] 30.8 µM | [11] 54.3 µM | [12] 39.2 µM | [13] 45.5 µM | [14] 30 µM | [15] 53.3 µM | [16] 18.2 µM

CC(=O)O[C@H]1CC[C@@]2(C)C(=C/C(=N\[N+](=O)[O-])[C@H]3C4CCC([C@H](C)CCCC(C)C)[C@@]4(C)CCC32)C1 (some centres undefined)
inactive: [1] > 100 µM | [2] > 100 µM | [3] > 100 µM | [4] > 100 µM | [5] > 100 µM | [6] > 100 µM | [17] > 100 µM | [7] > 100 µM | [8] > 100 µM | [9] > 100 µM | [10] > 100 µM | [11] > 100 µM | [12] > 100 µM | [13] > 100 µM | [14] > 100 µM | [15] > 100 µM | [16] > 100 µM

C#CCN(C(=O)C(F)(F)F)c1ccc(C(=O)c2ccc(N(CC#C)C(=O)C(F)(F)F)cc2)cc1
inactive: [1] 43.4 µM | [2] 37.6 µM | [3] 34.9 µM | [4] > 100 µM | [5] 30.8 µM | [17] 34.8 µM | [7] 21.6 µM | [10] 49.9 µM | [11] 34.5 µM | [12] 34.1 µM | [13] 59.7 µM | [14] 32.7 µM | [15] 33.7 µM | [16] 33.2 µM

CCOC(=O)C1=C(Nc2ccc(Br)cc2)OC/C1=N\NC(=O)c1ccccc1O
inactive: [2] 18 µM | [3] 52.4 µM | [4] 23 µM | [5] 38.9 µM | [6] 12.8 µM | [18] 9.06 µM | [7] 2.67 µM | [8] 5.37 µM | [9] 38.9 µM | [10] 46.1 µM | [11] 10.1 µM | [12] 15 µM | [13] 9.71 µM | [14] 5.13 µM | [15] 15.1 µM | [16] 23.5 µM

Oc1cc(C2OCCCO2)cc(O)c1O
inactive: [1] > 100 µM | [2] > 100 µM | [3] > 100 µM | [4] > 100 µM | [5] > 100 µM | [6] > 100 µM | [18] > 100 µM | [7] > 100 µM | [9] > 100 µM | [10] > 100 µM | [11] > 100 µM | [12] > 100 µM | [13] > 100 µM | [14] > 100 µM | [15] > 100 µM | [16] > 100 µM

COC(=O)C1C=CCC2CCCCC21N1CCCC1 (centres undefined)
inactive: [1] 44 µM | [2] > 100 µM | [3] 78.5 µM | [4] 83.6 µM | [5] 40.9 µM | [6] > 100 µM | [17] 34 µM | [18] 76.7 µM | [7] > 100 µM | [8] > 100 µM | [9] 87.7 µM | [10] > 100 µM | [11] 46.1 µM | [12] > 100 µM | [13] > 100 µM | [14] > 100 µM | [16] > 100 µM

COc1cc(/C=C\c2ccccn2)cc(OC)c1OC
inactive: [1] 47.3 µM | [2] > 100 µM | [3] > 100 µM | [4] 41.8 µM | [5] 66.1 µM | [17] 16.4 µM | [7] 60 µM | [8] 64 µM | [9] > 100 µM | [10] > 100 µM | [11] > 100 µM | [12] > 100 µM | [13] 56.9 µM | [14] > 100 µM | [16] 55.6 µM

COC(=O)/C(C)=C(/CCC1(C)OCCO1)O[Si](C)(C)C
inactive: [1] 20.5 µM | [2] > 100 µM | [3] > 100 µM | [4] > 100 µM | [5] > 100 µM | [6] > 100 µM | [17] > 100 µM | [7] > 100 µM | [8] > 100 µM | [10] > 100 µM | [11] > 100 µM | [12] > 100 µM | [13] 95.3 µM | [14] > 100 µM | [15] > 100 µM | [16] > 100 µM
